This assay concerns the target T1, human MAP4K4 kinase domain (Homo sapiens, UniProt O95819).
T1 construct: 0.5 nM human MAP4K4 kinase domain (Invitrogen); purchased Invitrogen
As to the kind of experiment: MAP4K4 kinase activity, CisBio HTRF Transcreener ADP assay. Type of assay: biochemical. To be noted: IC50 category; ATP at Km (10 μM), 0.5 nM kinase domain, 2 h; read-out: MAP4K4. The source says:
Compounds of the present invention were screened for their inhibitory activity against MAP4K4, versus selected off-target hits found with early members of this chemical series. MAP4K4 kinase activity was monitored using the CisBio HTRF Transcreener ADP assay, a competitive immunoassay with a reproducible Z′>0.6. In the detection step, endogenous ADP and d2-labeled ADP compete for binding an anti-ADP monoclonal antibody labelled with Eu^3+ cryptate. A ratiometric fluorescent read-out is used at 665 and 620 nm. Reactions were performed in the presence of 1% DMSO with ATP added at Km (10 μM), 0.5 nM human MAP4K4 kinase domain (Invitrogen), 1 μM biotin-myelin basic protein as substrate (Invitrogen), and extension of reaction time to 2 h. Assays were run in Greiner low volume plates with a final reaction volume of 10 μl. The MAP4K4 inhibition data are provided in Table 41 below for selected compounds of the present invention. The data has been categorised based on the IC50 value of the compound as “A”, “B” or “C”. IC50: A≤100 nM; 100 nM<B≤1 μM; 1 μM<C; nd=not determined.
T1 sequence (O95819 25-289 limits assumed): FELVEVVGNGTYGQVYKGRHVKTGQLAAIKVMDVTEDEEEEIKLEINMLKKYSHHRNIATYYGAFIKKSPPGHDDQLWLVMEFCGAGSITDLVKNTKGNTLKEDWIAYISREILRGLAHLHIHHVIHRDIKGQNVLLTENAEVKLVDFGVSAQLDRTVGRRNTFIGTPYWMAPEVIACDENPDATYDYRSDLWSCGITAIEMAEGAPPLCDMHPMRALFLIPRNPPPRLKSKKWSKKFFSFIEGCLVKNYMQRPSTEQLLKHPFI
As for `CC(C)(C)OC(=O)N1CC(n2cc(-c3cn(-c4ccccc4)c4nc[nH]c(=O)c34)cn2)C1` [Ex-65, 3-[4-(4-oxo-7-phenyl-4,7-dihydro-3H-pyrrolo[2,3-d]pyrimidin-5-yl)-pyrazol-1-yl]-azetidine-1-carboxylic acid tert-butyl ester], the IC50 is not above 100 nM.

Consider `COCCNc1ccc(-c2cn(-c3ccccc3)c3nc[nH]c(=O)c23)cn1` [Ex-38], for which the IC50 was not above 100 nM.

Take `CC(=O)Nc1ccc(-c2cn(-c3ccccc3)c3nc[nH]c(=O)c23)cn1` [Ex-6]: the IC50 is not above 100 nM.

As for `CC(C)(O)CCNc1ccc(-c2cn(-c3ccccc3)c3nc[nH]c(=O)c23)cn1` [Ex-94, 5-[6-[(3-hydroxy-3-methyl-butyl)amino]-3-pyridyl]-7-phenyl-3H-pyrrolo[2,3-d]pyrimidin-4-one], the IC50 was not above 100 nM.

Regarding `CN(C)CCCOc1ccc(-c2cn(-c3ccccc3)c3c(=O)[nH]cnc23)cn1` [Ex-114, 7-[6-(3-Dimethylamino-propoxy)-pyridin-3-yl]-5-phenyl-3,5-dihydro-pyrrolo[3,2-d]pyrimidin-4-one], the IC50 was in the range of 100 to 1000 nM.

Regarding `CN1CCN(CCCOc2ccc(-c3cn(-c4cccnc4)c4nc[nH]c(=O)c34)cc2)CC1` [Ex-43], the IC50 is not above 100 nM.

In the case of `Cn1cc(-c2cn(-c3ccccc3)c3c(=O)[nH]cnc23)cn1` [Ex-120], the IC50 lay in the range of 100 to 1000 nM.

For the molecule `CC(=O)N1CC(n2cc(-c3cn(-c4ccncc4)c4nc[nH]c(=O)c34)cn2)C1` [Ex-12], the IC50 was in the range of 100 to 1000 nM.

For `O=c1[nH]cnc2c1c(-c1cnn(CCO)c1)cn2-c1ccc(F)cc1` [Ex-55, 7-(4-fluorophenyl)-5-(1-(2-hydroxyethyl)-1H-pyrazol-4-yl)-3,7-dihydro-4H-pyrrolo[2,3-d]pyrimidin-4-one], the IC50 was in the range of 100 to 1000 nM.

With `O=c1[nH]cnc2c(-c3cccnc3)cn(-c3ccccc3)c12` [Ex-124], the IC50 was in the range of 100 to 1000 nM.

For `COCCn1cc(-c2cn(-c3ccncc3)c3nc[nH]c(=O)c23)cn1` [Ex-63], the IC50 lay within 100 to 1000 nM.

As to `O=c1[nH]cnc2c1c(-c1ccccc1)cn2-c1ccncc1` [Ex-2], the IC50 was in the range of 100 to 1000 nM.

For the molecule `CC(C)(O)CCOc1ccc(-c2cn(-c3cncc(F)c3)c3nc[nH]c(=O)c23)cc1` [Ex-84], the IC50 lay within 100 to 1000 nM.

Turning to `COCCCn1cc(-c2cn(-c3ccccc3)c3nc[nH]c(=O)c23)cn1` [Ex-64], the IC50 is not above 100 nM.

In the case of `COCCNc1ncc(-c2cn(-c3cccc(F)c3)c3nc[nH]c(=O)c23)cn1` [Ex-31], the IC50 was not above 100 nM.

For the molecule `CNc1ccc(-c2cn(-c3ccccc3)c3c(=O)[nH]cnc23)cn1` [Ex-134], the IC50 was more than 1000 nM.

For `CN(CCO)c1ccc(-c2cn(-c3ccccc3)c3nc[nH]c(=O)c23)cn1` [Ex-52], the IC50 was not above 100 nM.

As for `Nc1ccc(-c2cn(-c3ccccc3)c3nc[nH]c(=O)c23)cn1` [Ex-9], the IC50 is not above 100 nM.

Consider `O=c1[nH]cnc2c1c(-c1ccc(O[C@@H]3CO[C@@H]4[C@H]3OC[C@@H]4O)cc1)cn2-c1cccnc1` [Ex-80], for which the IC50 is not above 100 nM.

In the case of `O=c1[nH]cnc2c(-c3ccnnc3)cn(-c3ccccc3)c12` [Ex-116], the IC50 lay in the range of 100 to 1000 nM.

Take `COCCNc1ccc(-c2cn(-c3cccc(F)c3)c3nc[nH]c(=O)c23)cn1` [Ex-30]: the IC50 was not above 100 nM.

As for `O=c1cc(-c2cn(-c3ccccc3)c3c(=O)[nH]cnc23)cc[nH]1` [Ex-128], the IC50 was in the range of 100 to 1000 nM.

As to `O=c1[nH]cnc2c(-c3cccc4cn[nH]c34)cn(-c3ccccc3)c12` [Ex-117], the IC50 lay within 100 to 1000 nM.

As for `O=c1[nH]cnc2c1c(-c1ccccc1)cn2-c1cccnc1` [Ex-1, 5-Phenyl-7-pyridin-3-yl-3,7-dihydro-pyrrolo[2,3-d]pyrimidin-4-one], the IC50 was 100 to 1000 nM.

As for `Nc1ccc(-c2cn(-c3ccccc3)c3c(=O)[nH]cnc23)cn1` [Ex-138, 7-(6-aminopyridin-3-yl)-5-phenyl-3,5-dihydro-4H-pyrrolo[3,2-d]pyrimidin-4-one], the IC50 was not above 100 nM.

For `N#Cc1cc(-c2cn(-c3ccccc3)c3nc[nH]c(=O)c23)cnc1N1CC[C@H](O)C1` [Ex-41], the IC50 was not above 100 nM.

For the molecule `O=c1[nH]cnc2c1c(-c1ccncc1)cn2-c1ccccc1` [Ex-4], the IC50 is not above 100 nM.

Take `CC(C)(N)COc1ccc(-c2cn(-c3cccnc3)c3nc[nH]c(=O)c23)cc1` [Ex-110]: the IC50 lay in the range of 100 to 1000 nM.

As for `O=c1[nH]cnc2c1c(-c1cnn(Cc3ccccc3)c1)cn2-c1ccccc1` [Ex-23], the IC50 was not above 100 nM.

`CC(C)(O)CCOc1ccc(-c2cn(-c3ccccc3)c3nc[nH]c(=O)c23)cn1` [Ex-75]: the IC50 was not above 100 nM.

Turning to `CN(CCO)c1ncc(-c2cn(-c3ccccc3)c3nc[nH]c(=O)c23)cc1C#N` [Ex-53], the IC50 was not above 100 nM.

As to `CC(=O)N1CC(n2cc(-c3cn(-c4ccc(F)cc4)c4nc[nH]c(=O)c34)cn2)C1` [Ex-3, 5-[1-(1-Acetyl-azetidin-3-yl)-1H-pyrazol-4-yl]-7-(4-fluoro-phenyl)-3,7-dihydro-pyrrolo[2,3-d]pyrimidin-4-one], the IC50 was 100 to 1000 nM.

As for `CC(C)(O)COc1ccc(-c2cn(-c3ccccc3)c3nc[nH]c(=O)c23)cn1` [Ex-46], the IC50 is not above 100 nM.

Regarding `COCCn1cc(-c2cn(-c3cccc(F)c3)c3nc[nH]c(=O)c23)cn1` [Ex-20], the IC50 is not above 100 nM.

With `O=c1[nH]cnc2c(-c3ccncc3)cn(-c3ccccc3)c12` [Ex-119, 5-Phenyl-7-pyridin-4-yl-3,5-dihydro-pyrrolo[3,2-d]pyrimidin-4-one], the IC50 was in the range of 100 to 1000 nM.

Turning to `Nc1cc(-c2cn(-c3ccccc3)c3nc[nH]c(=O)c23)ccn1` [Ex-8], the IC50 was not above 100 nM.

Regarding `O=c1[nH]cnc2c(-c3cncnc3)cn(-c3ccccc3)c12` [Ex-115], the IC50 was more than 1000 nM.

On to `O=C(C1CC1)N1CC(n2cc(-c3cn(-c4cccnc4)c4nc[nH]c(=O)c34)cn2)C1` [Ex-36], for which the IC50 lay within 100 to 1000 nM.

In the case of `COc1cc(-c2cn(-c3ccccc3)c3c(=O)[nH]cnc23)ccn1` [Ex-127], the IC50 fell in the range of 100 to 1000 nM.

With `O=c1[nH]cnc2c(-c3ccncc3F)cn(-c3ccccc3)c12` [Ex-121], the IC50 was more than 1000 nM.

For the molecule `O=C(C1CC1)N1CC(n2cc(-c3cn(-c4cccc(F)c4)c4nc[nH]c(=O)c34)cn2)C1` [Ex-15], the IC50 is not above 100 nM.

On to `O=c1[nH]cnc2c1c(-c1cnn(CCCO)c1)cn2-c1ccccc1` [Ex-113, 5-[1-(3-Hydroxy-propyl)-1H-pyrazol-4-yl]-7-phenyl-3,7-dihydro-pyrrolo[2,3-d]pyrimidin-4-one], for which the IC50 is not above 100 nM.

Consider `O=c1[nH]cnc2c(-c3cnn(CCO)c3)cn(-c3ccccc3)c12` [Ex-123], for which the IC50 was in the range of 100 to 1000 nM.

Consider `O=c1[nH]cnc2c1c(-c1ccc(OCCC3(O)COC3)cc1)cn2-c1cccnc1` [Ex-91], for which the IC50 was not above 100 nM.

On to `CC(C)(O)CCOc1ccc(-c2cn(-c3cccnc3)c3nc[nH]c(=O)c23)c(F)c1` [Ex-72], for which the IC50 is not above 100 nM.

For `CN(C)CCCOc1ccc(-c2cn(-c3cccnc3)c3nc[nH]c(=O)c23)cc1` [Ex-33], the IC50 is not above 100 nM.

`CNCCn1cc(-c2cn(-c3ccccc3)c3nc[nH]c(=O)c23)cn1` [Ex-109]: the IC50 lay within 100 to 1000 nM.

As to `CC(C)(O)CCOc1ccc(-c2cn(-c3ccncc3)c3nc[nH]c(=O)c23)cc1` [Ex-69], the IC50 is not above 100 nM.

As to `O=c1[nH]cnc2c1c(-c1cnn(C3CNC3)c1)cn2-c1ccccc1` [Ex-108, 5-(1-Azetidin-3-yl-1H-pyrazol-4-yl)-7-phenyl-3,7-dihydro-pyrrolo[2,3-d]pyrimidin-4-one], the IC50 is 100 to 1000 nM.

As for `O=c1[nH]cnc2c1c(-c1cnc(N3CC(CO)C3)nc1)cn2-c1ccccc1` [Ex-51], the IC50 is 100 to 1000 nM.

Turning to `COc1ccc(-c2cn(-c3ccccc3)c3nc[nH]c(=O)c23)nc1` [Ex-105], the IC50 was in the range of 100 to 1000 nM.

As for `COCCOc1ccc(-c2cn(-c3cccnc3)c3cc[nH]c(=O)c23)cc1` [Ex-140, 3-[4-(2-Methoxy-ethoxy)-phenyl]-1-pyridin-3-yl-1,5-dihydro-pyrrolo[3,2-c]pyridin-4-one], the IC50 was not above 100 nM.

As for `COc1cc(-n2cc(-c3ccc(OCCC(C)(C)O)cc3)c3c(=O)[nH]cnc32)ccn1` [Ex-83], the IC50 lay within 100 to 1000 nM.

In the case of `O=c1[nH]cnc2c1c(-c1ccc(OC(F)(F)CO)cc1)cn2-c1cccnc1` [Ex-77], the IC50 was not above 100 nM.

With `Cn1cc(-c2cn(-c3ccccc3)c3nc[nH]c(=O)c23)cn1` [Ex-24], the IC50 is not above 100 nM.

Take `COc1cc(-c2cn(-c3ccccc3)c3nc[nH]c(=O)c23)ccn1` [Ex-17]: the IC50 was not above 100 nM.

As to `CC(C)(O)CCOc1ccc(-c2cn(-c3cccnc3)c3ncn(COP(=O)(O)O)c(=O)c23)cc1` [Ex-102, (5-(4-(3-hydroxy-3-methylbutoxy)phenyl)-4-oxo-7-(pyridin-3-yl)-4,7-dihydro-3H-pyrrolo[2,3-d]pyrimidin-3-yl)methyl dihydrogen phosphate], the IC50 was more than 1000 nM.

These data come from patent publication US12247045B2, “MAP4K4 inhibitors” (Imperial College Innovations Limited, priority 2018, dated 2025).
